Measurements from US11466029B2, “Compounds useful to treat influenza virus infections” (Nanjing Zhengxiang Pharmaceuticals Co., Ltd., priority 2019, dated 2022).

These compounds were tested on Oseltamivir-resistant A/Weiss/43 (H1N1) (assay: microbe, parasite or virus in culture). Conditions: Influenza A virus, H1N1, MDCK, 120 h.
Type: cell-based

Row | Compound | EC50 [nM]
1 | O=C1c2c(O)c(=O)ccn2N([C@@H]2c3ccccc3SCc3c2ccc(F)c3F)[C@@H]2COCCN12 [Baloxavir acid, reference compound] | 1
2 | O=C1c2c(O)c(=O)ccn2N([C@@H]2c3ccccc3[Se]Cc3c2ccc(F)c3F)[C@@H]2COCCN12 [Compound B-1, (R)-12-((S)-7,8-Difluoro-6,11-Dihydrodibenzo[b,e]Selenepin-11-yl)-7-Hydroxy-3,4,12,12a-Tetrahydro-1H-[1,4]Oxazino[3,4-c]Pyrido[2,1-f][1,2,4]Triazine-6,8-Dione] | 1.1
3 | CP(C)(=O)c1cn2c(c(O)c1=O)C(=O)N1CCOC[C@H]1N2[C@@H]1c2ccccc2SCc2c1ccc(F)c2F [Compound E-1c, (R)-12-((S)-7,8-difluoro-6,11-dihydrodibenzo[b,e]thiepin-11-yl)-9-(dimethylphosphoryl)-7-hydroxy-3,4,12,12a-tetrahydro-1H-[1,4]oxazino[3,4-c]pyrido[2,1-f][1,2,4]triazine-6,8-dione] | 254
4 | CCP(=O)(CC)c1cn2c(c(O)c1=O)C(=O)N1CCOC[C@H]1N2[C@@H]1c2ccccc2SCc2c1ccc(F)c2F [Compound F-1, (R)-9-(Diethylphosphoryl)-12-((S)-7,8-Difluoro-6,11-Dihydrodibenzo[b,e]-Thiepin-11-yl)-7-Hydroxy-3,4,12,12a-Tetrahydro-1H-[1,4]Oxazino[3,4-c]Pyrido[2,1-f][1,2,4]Triazine-6,8-Dione] | 881
5 | CCC(CC)O[C@@H]1C=C(C(=O)O)C[C@H](N)[C@H]1NC(C)=O [Oseltamivir acid, reference compound] | > 100000
